Measured values taken from patent publication US8461107B2 (Merck Sharp & Dohme Corp., priority 2008, dated 2013).

target: T1, HCV genotype 1b (BK) NS3 modified with a R155K mutation (Hepatitis C virus genotype 1b, UniProt P26663, R1181K); experiment: HCV NS3 protease time-resolved fluorescence (TRF) assay, NS3 protease 1b R155K Ki activity; type: biochemical; conditions: HCV genotype 1b (BK) NS3 with R155K mutation; TRF peptide substrate 100 nM; Ki derived from IC50
T1 construct: HCV genotype 1b (BK) NS3 modified with a R155K mutation
Summary of the method: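 Pre-incubation of NS3/NS4A protease (genotype 1b BK, R155K) with inhibitor for 30 min, then 1 h at room temperature with 100 nM TRF peptide substrate in pH 7.5 HEPES buffer with 10 mM DTT. Reaction quenched with pH 5.5 MES; time-resolved fluorescence read (ex 340/em 615 nm). Ki derived from four-parameter IC50 fit via IC50=Ki(1+[S]/KM).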

First: C=C[C@@H]1C[C@]1(NC(=O)[C@@H]1C[C@@H]2CN1C(=O)[C@H](C(C)(C)C)NC(=O)O[C@@H]1CCC[C@H]1C/C=C/CCn1c(cc3cc(Cl)ccc3c1=O)O2)C(=O)NS(=O)(=O)C1CC1 [(3aR,7S,10S,12R,23E,25aS)-7-tert-butyl-16-chloro-N-((1R,2S)-1-{[(cyclopropylsulfonyl)amino]carbonyl}-2-vinylcyclopropyl)-5,8,19-trioxo-1,2,3,3a,5,6,7,8,11,12,21,22,25,25a-tetradecahydro-10H,19H-9,12-methanocyclopenta[18,19][1,10,3,6,12]dioxatriazacyclononadecino[12,11-b]isoquinoline-10-carboxamide]
Second: C=C[C@@H]1C[C@]1(NC(=O)[C@@H]1C[C@@H]2CN1C(=O)[C@H](C(C)(C)C)NC(=O)O[C@@H]1CCC[C@H]1C/C=C/CCn1c(cc3cc(OC)ccc3c1=O)O2)C(=O)NS(=O)(=O)C1CC1 [(3aR,7S,10S,12R,23E,25aS)-7-tert-butyl-N-((1R,2S)-1-{[(cyclopropylsulfonyl)amino]carbonyl}-2-vinylcyclopropyl)-16-methoxy-5,8,19-trioxo-1,2,3,3a,5,6,7,8,11,12,21,22,25,25a-tetradecahydro-10H,19H-9,12-methanocyclopenta[18,19][1,10,3,6,12]dioxatriazacyclononadecino[12,11-b]isoquinoline-10-carboxamide]
The Ki of the first is lower: < 0.1 nM for the first, 0.1 to 0.5 nM for the second.

`C=C[C@@H]1C[C@]1(NC(=O)[C@@H]1C[C@@H]2CN1C(=O)[C@H](C(C)(C)C)NC(=O)O[C@@H]1CCC[C@H]1C/C=C/CCn1c(cc3ccccc3c1=O)O2)C(=O)NS(=O)(=O)C1CC1` [(3aR,7S,10S,12R,23E,25aS)-7-tert-butyl-N-((1R,2S)-1-{[(cyclopropylsulfonyl)amino]carbonyl}-2-vinylcyclopropyl)-5,8,19-trioxo-1,2,3,3a,5,6,7,8,11,12,21,22,25,25a-tetradecahydro-10H,19H-9,12-methanocyclopenta[18,19][1,10,3,6,12]dioxatriazacyclononadecino[12,11-b]isoquinoline-10-carboxamide] and `C=C[C@@H]1C[C@]1(NC(=O)[C@@H]1C[C@@H]2CN1C(=O)[C@H](C1CCCC1)NC(=O)O[C@@H]1CCC[C@H]1C/C=C/CCn1c(cc3cc(Cl)ccc3c1=O)O2)C(=O)NS(=O)(=O)C1CC1` [(3aR,7S,10S,12R,23E,25aS)-16-chloro-7-cyclopentyl-N-((1R,2S)-1-{[(cyclopropylsulfonyl)amino]carbonyl}-2-vinylcyclopropyl)-5,8,19-trioxo-1,2,3,3a,5,6,7,8,11,12,21,22,25,25a-tetradecahydro-10H,19H-9,12-methanocyclopenta[18,19][1,10,3,6,12]dioxatriazacyclononadecino[12,11-b]isoquinoline-10-carboxamide] cannot be ordered by Ki: < 0.1 nM for the first, < 0.1 nM for the second.

First: CC[C@@H]1C[C@]1(NC(=O)[C@@H]1C[C@@H]2CN1C(=O)[C@H](C1CCCCC1)NC(=O)O[C@@H]1CCC[C@H]1C/C=C/CCn1c(cc3cc(Cl)ccc3c1=O)O2)C(=O)NS(=O)(=O)C1CC1 [(3aR,7S,10S,12R,23E,25aS)-16-chloro-7-cyclohexyl-N-((1R,2R)-1-{[(cyclopropylsulfonyl)amino]carbonyl}-2-ethylcyclopropyl)-5,8,19-trioxo-1,2,3,3a,5,6,7,8,11,12,21,22,25,25a-tetradecahydro-10H,19H-9,12-methanocyclopenta[18,19][1,10,3,6,12]dioxatriazacyclononadecino[12,11-b]isoquinoline-10-carboxamide]
Second: C=C[C@@H]1C[C@]1(NC(=O)[C@@H]1C[C@@H]2CN1C(=O)[C@H](C1CCCCC1)NC(=O)O[C@@H]1CCC[C@H]1C/C=C/CCn1c(cc3cc(Cl)ccc3c1=O)O2)C(=O)NS(=O)(=O)C1CC1 [(3aR,7S,10S,12R,23E,25aS)-16-chloro-7-cyclohexyl-N-((1R,2S)-1-{[(cyclopropylsulfonyl)amino]carbonyl}-2-vinylcyclopropyl)-5,8,19-trioxo-1,2,3,3a,5,6,7,8,11,12,21,22,25,25a-tetradecahydro-10H,19H-9,12-methanocyclopenta[18,19][1,10,3,6,12]dioxatriazacyclononadecino[12,11-b]isoquinoline-10-carboxamide]
The Ki of the first is higher: 0.1 to 0.5 nM for the first, < 0.1 nM for the second. The second binds more tightly here.

First: CC[C@@H]1C[C@]1(NC(=O)[C@@H]1C[C@@H]2CN1C(=O)[C@H](C1CCCC1)NC(=O)O[C@@H]1CCC[C@H]1CCCCCn1c(nc3ccccc3c1=O)O2)C(=O)NS(=O)(=O)C1CC1 [(3aR,7S,10S,12R,25aR)-7-cyclopentyl-N-((1R,2R)-1-{[(cyclopropylsulfonyl)amino]carbonyl}-2-ethylcyclopropyl)-5,8,19-trioxo-1,2,3,3a,5,6,7,8,11,12,21,22,23,24,25,25a-hexadecahydro-10H,19H-9,12-methanocyclopenta[18,19][1,10,3,6,12]dioxatriazacyclononadecino[11,12-b]quinazoline-10-carboxamide]
Second: C=C[C@@H]1C[C@]1(NC(=O)[C@@H]1C[C@@H]2CN1C(=O)[C@H](C1CCCC1)NC(=O)O[C@@H]1CCC[C@H]1CCCCCn1c(nc3ccccc3c1=O)O2)C(=O)NS(=O)(=O)C1CC1 [(3aR,7S,10S,12R,25aR)-7-cyclopentyl-N-((1R,2S)-1-{[(cyclopropylsulfonyl)amino]carbonyl}-2-vinylcyclopropyl)-5,8,19-trioxo-1,2,3,3a,5,6,7,8,11,12,21,22,23,24,25,25a-hexadecahydro-10H,19H-9,12-methanocyclopenta[18,19][1,10,3,6,12]dioxatriazacyclononadecino[11,12-b]quinazoline-10-carboxamide]
The Ki of the first is higher: 0.1 to 0.5 nM for the first, < 0.1 nM for the second.

`CC[C@@H]1C[C@]1(NC(=O)[C@@H]1C[C@@H]2CN1C(=O)[C@H](C1CCCC1)NC(=O)O[C@@H]1CCC[C@H]1CCCCCn1c(cc3ccccc3c1=O)O2)C(=O)NS(=O)(=O)C1CC1` [(3aR,7S,10S,12R,25aR)-7-cyclopentyl-N-((1R,2R)-1-{[(cyclopropylsulfonyl)amino]carbonyl}-2-ethylcyclopropyl)-5,8,19-trioxo-1,2,3,3a,5,6,7,8,11,12,21,22,23,24,25,25a-hexadecahydro-10H,19H-9,12-methanocyclopenta[18,19][1,10,3,6,12]dioxatriazacyclononadecino[12,11-b]isoquinoline-10-carboxamide] and `CC[C@@H]1C[C@]1(NC(=O)[C@@H]1C[C@@H]2CN1C(=O)[C@H](C1CCCC1)NC(=O)O[C@@H]1CCC[C@H]1CCCCCn1c(cc3cc(OC)ccc3c1=O)O2)C(=O)NS(=O)(=O)C1CC1` [(3aR,7S,10S,12R,25aR)-7-cyclopentyl-N-((1R,2R)-1-{[(cyclopropylsulfonyl)amino]carbonyl}-2-ethylcyclopropyl)-16-methoxy-5,8,19-trioxo-1,2,3,3a,5,6,7,8,11,12,21,22,23,24,25,25a-hexadecahydro-10H,19H-9,12-methanocyclopenta[18,19][1,10,3,6,12]dioxatriazacyclononadecino[12,11-b]isoquinoline-10-carboxamide] fall in the same range of Ki: 0.1 to 0.5 nM for the first, 0.1 to 0.5 nM for the second.

`CC[C@@H]1C[C@]1(NC(=O)[C@@H]1C[C@@H]2CN1C(=O)[C@H](C1CCCC1)NC(=O)O[C@@H]1CCC[C@H]1CCCCCn1c(nc3cc(-c4ccccc4)ccc3c1=O)O2)C(=O)NS(=O)(=O)C1CC1` [(3aR,7S,10S,12R,25aR)-7-cyclopentyl-N-((1R,2R)-1-{[(cyclopropylsulfonyl)amino]carbonyl}-2-ethylcyclopropyl)-5,8,19-trioxo-16-phenyl-1,2,3,3a,5,6,7,8,11,12,21,22,23,24,25,25a-hexadecahydro-10H,19H-9,12-methanocyclopenta[18,19][1,10,3,6,12]dioxatriazacyclononadecino[11,12-b]quinazoline-10-carboxamide] and `CC[C@@H]1C[C@]1(NC(=O)[C@@H]1C[C@@H]2CN1C(=O)[C@H](C1CCCC1)NC(=O)O[C@@H]1CCC[C@H]1CCCCCn1c(nc3cc(OC)ccc3c1=O)O2)C(=O)NS(=O)(=O)C1CC1` [(3aR,7S,10S,12R,25aR)-7-cyclopentyl-N-((1R,2R)-1-{[(cyclopropylsulfonyl)amino]carbonyl}-2-ethylcyclopropyl)-16-methoxy-5,8,19-trioxo-1,2,3,3a,5,6,7,8,11,12,21,22,23,24,25,25a-hexadecahydro-10H,19H-9,12-methanocyclopenta[18,19][1,10,3,6,12]dioxatriazacyclononadecino[11,12-b]quinazoline-10-carboxamide] fall in the same range of Ki: 0.1 to 0.5 nM for the first, 0.1 to 0.5 nM for the second.

Compared with `CC[C@@H]1C[C@]1(NC(=O)[C@@H]1C[C@@H]2CN1C(=O)[C@H](C1CCCC1)NC(=O)O[C@@H]1CCC[C@H]1CCCCCn1c(nc3cccc(OC)c3c1=O)O2)C(=O)NS(=O)(=O)C1CC1` [(3aR,7S,10S,12R,25aR)-7-cyclopentyl-N-((1R,2R)-1-{[(cyclopropylsulfonyl)amino]carbonyl}-2-ethylcyclopropyl)-18-methoxy-5,8,19-trioxo-1,2,3,3a,5,6,7,8,11,12,21,22,23,24,25,25a-hexadecahydro-10H,19H-9,12-methanocyclopenta[18,19][1,10,3,6,12]dioxatriazacyclononadecino[11,12-b]quinazoline-10-carboxamide], `C=C[C@@H]1C[C@]1(NC(=O)[C@@H]1C[C@@H]2CN1C(=O)[C@H](C1CCCC1)NC(=O)O[C@@H]1CCC[C@H]1CCCCCn1c(nc3cc(C(F)(F)F)ccc3c1=O)O2)C(=O)NS(=O)(=O)C1CC1` [(3aR,7S,10S,12R,25aR)-7-cyclopentyl-N-((1R,2S)-1-{[(cyclopropylsulfonyl)amino]carbonyl}-2-vinylcyclopropyl)-5,8,19-trioxo-16-(trifluoromethyl)-1,2,3,3a,5,6,7,8,11,12,21,22,23,24,25,25a-hexadecahydro-10H,19H-9,12-methanocyclopenta[18,19][1,10,3,6,12]dioxatriazacyclononadecino[11,12-b]quinazoline-10-carboxamide] is lower in Ki: 0.5 to 1 nM for the first, 0.1 to 0.5 nM for the second. The second binds more tightly here.
